From patent US6949583B2, “Aminoalkoxybenzoyl-benzofuran or benzothiophene derivatives, method of preparing same and compositions containing same” (Sanofi-Synthelabo, priority 2000, dated 2005)
Counter-ions that a name gives are not always drawn.

Row | SMILES | melting point [°C]
1 | CCCCc1oc2cc(C)c(C(=O)OC(C)C)cc2c1C(=O)c1ccc(CCCN(CC)CC)cc1 (as salt: oxalate) | 155 to 157
2 | CCCCc1oc2ccc(C(=O)OC)cc2c1C(=O)c1ccc(CC(O)CN(CCCC)CCCC)cc1 (stereo not shown) (as salt: oxalate) | 128 to 130
3 | CCCCc1oc2ccc(C(=O)OC(C)C)cc2c1C(=O)c1cc(C)c(CCCN(CCCC)CCCC)c(C)c1 (as salt: oxalate) | 119 to 121
4 | CCCCc1oc2ccc(C(=O)OC)cc2c1C(=O)c1ccc(C(O)CN(CCCC)CCCC)cc1 (stereo not shown) (as salt: oxalate) | 124 to 126
5 | CCCCN(CCCC)CCCc1ccc(C(=O)c2c(C3CCCCC3)oc3ccc(C(=O)OC(C)C)cc23)cc1 (as salt: oxalate) | 124 to 126
6 | CCCCc1oc2ccc(C(=O)OC)cc2c1C(=O)c1ccc(CN(CCCC)CCCC)cc1 (as salt: oxalate) | 96 to 97
7 | CCCCc1oc2ccc(C(=O)OC(C)C)cc2c1C(=O)c1ccc([C@@H]([C@@H](C)O)N(CCCC)CCCC)cc1 (as salt: oxalate) | 150 to 151
8 | CCCCc1oc2ccc(C(=O)OC)cc2c1C(=O)c1ccc(CN2CCN(CC)CC2)cc1 (as salt: oxalate) | 220 to 221
9 | CCCCc1oc2ccc(C(=O)OC(C)C)cc2c1C(=O)c1ccc(CN2CCN(CC)CC2)cc1 (as salt: oxalate) | 222 to 224
10 | CCCCc1oc2ccc(C(=O)OC(C)C)cc2c1C(=O)c1ccc([C@@H](O)[C@@H](C)N(CCCC)CCCC)cc1 (as salt: oxalate) | 107 to 108
11 | CCCCN(CCCC)COCc1ccc(C(=O)c2c(C(C)C)oc3ccc(C(=O)OC(C)C)cc23)cc1 (as salt: oxalate) | 106 to 108
12 | CCCCc1oc2ccc(C(=O)OC(C)C)cc2c1C1(c2ccc(CCCN(CCCC)CCCC)cc2)OCCO1 (as salt: oxalate) | 106 to 108
13 | CCCCc1oc2ccc(C(=O)OC(C)C)cc2c1C(=O)c1cc(Cl)c(CCCN(CCCC)CCCC)c(Cl)c1 (as salt: oxalate) | 87 to 89
14 | CCCCc1oc(C)c(C(=O)OCC)c1C(=O)c1ccc(CCCN(CCCC)CCCC)cc1 (as salt: oxalate) | 133 to 135

More lines, now with the values ahead:

Row | melting point [°C] | SMILES
15 | 155 to 157 | CCCCN(CCCC)CCCc1ccc(C(=O)c2c(CCC)oc3ccc(C(=O)OC(C)C)cc23)cc1 (as salt: oxalate)
16 | 124 to 126 | CCCCCc1oc2ccc(C(=O)OC(C)C)cc2c1C(=O)c1ccc(CCCN(CCCC)CCCC)cc1 (as salt: oxalate)
17 | 105 to 107 | CCCCN(CCCC)CCCc1ccc(C(=O)c2c(CC(C)C)oc3ccc(C(=O)OC(C)C)cc23)cc1 (as salt: oxalate)
18 | 75 to 78 | CCCCc1oc2ccc(C(=O)OC(C)C)cc2c1C(=O)c1ccc(CCCN(CCCC)CCCC)o1 (as salt: oxalate)
19 | 90 to 91 | CCCCc1oc2ccc(C(=O)OC(C)C)cc2c1C(=O)c1ccc(CC(O)CN(CCCC)CCCC)cc1 (stereo not shown) (as salt: oxalate)
20 | 107 to 108 | CCCCc1oc2ccc(C(=O)OC(C)C)cc2c1C(=O)c1ccc(CN(CCCC)CCCC)cc1 (as salt: oxalate)
21 | 107 to 108 | CCCCN(CCCC)CCCc1ccc(C(=O)c2c(CCC(=O)OC)oc3ccc(C(=O)OC(C)C)cc23)cc1 (as salt: oxalate)
22 | 85 to 88 | CCCCc1oc2ccc(C(=O)OC(C)C)cc2c1C(=O)c1ccccc1CCCN(CCCC)CCCC (as salt: oxalate)
23 | 87 to 90 | CCCCc1oc2ccc(C(=O)OC(C)C)cc2c1C(=O)c1cccc(CCCN(CCCC)CCCC)c1 (as salt: oxalate)
24 | 107 to 108 | CCCCN(CCCC)CCCc1ccc(C(=O)c2c(C)oc3ccc(C(=O)OC(C)C)cc23)cc1 (as salt: oxalate)
25 | 105 | CCCCN(CCCC)CCCc1ccc(C(=O)c2c(CCCC(=O)OC)oc3ccc(C(=O)OC(C)C)cc23)cc1 (as salt: oxalate)
26 | 86 to 89 | CCCCc1sc2ccc(C(=O)OC(C)C)cc2c1C(=O)c1ccc(CCCN(CCCC)CCCC)cc1 (as salt: oxalate)
27 | 92 to 93 | CCCCc1oc2ccc(C(=O)OC(C)C)cc2c1C(=O)c1ccc(C(C)(C)CCN(CCCC)CCCC)cc1 (as salt: oxalate)
28 | 73 | CCCCc1oc2ccc(C(=O)OC(C)C)cc2c1C(=O)c1ccc(COCCN(CCCC)CCCC)cc1 (as salt: oxalate)
29 | 100 | CCCCc1oc2ccc(C(=O)OC(C)C)cc2c1C(=O)c1ccc(CCCN(CCCC)CCCC)s1 (as salt: oxalate)
30 | 73 to 74 | CCCCc1oc2ccc(C(=O)OC(C)C)cc2c1C(=O)c1ccc(COCCCN(CCCC)CCCC)cc1 (as salt: oxalate)
31 | 134 to 135 | CCCCc1oc2ccc(C(=O)OC(C)C)cc2c1C(=O)c1ccc(C(O)CN(CCCC)CCCC)cc1 (stereo not shown) (as salt: oxalate)
